# Patent publication US8642585B2, “Indanyloxydihydrobenzofuranylacetic acids” (Boehringer Ingelheim International GmbH, priority 2012, dated 2014)
# Target: human GPR40 receptor (Homo sapiens, UniProt O14842)
# Test: Assay I: IP1 accumulation (IPOne HTRF) in 1321N1 cells stably expressing human GPR40
# Format: cell-based
# Conditions: 1321N1 cells expressing human GPR40, stimulation 1 hour at 37° C., 10% CO2, final LiCl 50 mM
# Method: IP1 accumulation measurements using the IPOne assay system—1321N1 cells stably expressing human GPR40 receptor (Euroscreen, Belgium) are seeded 24 h before the assay in black clear-bottom collagen-coated 384-well plates in culture medium containing 10% FCS, 1% Na-Pyruvate and 400 μg/mL G418. IP1 is assayed according to the Manufacturers description (Cisbio Bioassays, France). In brief, the assay is started by substitution of the culture medium by stimulation buffer (Hepes 10 mM, CaCl2 1 mM, MgCl2 0.5 mM, KCl 4.2 mM, NaCl 146 mM and glucose 5.5 mM, pH 7.4) without LiCl. Cells are stimulated for 1 hour at 37° C., 10% CO2 by addition of the compounds that are diluted in stimulation buffer containing LiCl yielding a final LiCl concentration of 50 mM. Assays are stopped by adding HTRF-conjugates (IP1-d2 and Anti-IP1 cryptate Tb) and lysis buffer, provided by the manufacturer. After an incubation time of 1 hour at room temperature plates are measured using an EnVision™, Perkin Elmer. The obtained fluorescence ratios at 665/615 nM are then used to calculate the pEC50 values using GraphPad Prism 5 (Graphpad Software Inc, USA) by interpolation using an IP1 reference curve and subsequent sigmoidal curve fitting allowing for a variable hill slope.
# Sequence of human GPR40 receptor (O14842 whole entry): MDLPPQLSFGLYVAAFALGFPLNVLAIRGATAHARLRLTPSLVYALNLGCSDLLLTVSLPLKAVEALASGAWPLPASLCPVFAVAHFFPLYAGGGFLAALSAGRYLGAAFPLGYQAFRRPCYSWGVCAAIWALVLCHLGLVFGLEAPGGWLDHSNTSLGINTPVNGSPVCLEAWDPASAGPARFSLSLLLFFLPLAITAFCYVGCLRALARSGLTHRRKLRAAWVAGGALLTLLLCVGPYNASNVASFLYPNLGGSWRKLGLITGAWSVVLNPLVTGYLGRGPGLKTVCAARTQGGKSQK
row,SMILES,EC50 [µM]
1,"Cc1cc(OCC2CN(S(=O)(=O)C(C)C)C2)cc(C)c1-c1ccc(F)c2c1CC[C@H]2Oc1ccc2c(c1)OC[C@H]2CC(=O)O [Example 31, 2-((S)-6-((R)-7-Fluoro-4-(4-((1-(isopropylsulfonyl)azetidin-3-yl)methoxy)-2,6-dimethylphenyl)-2,3-dihydro-1H-inden-1-yloxy)-2,3-dihydrobenzofuran-3-yl)acetic acid]",0.017
2,"Cc1cc(OC2CCS(=O)(=O)CC2)cc(C)c1-c1ccc(F)c2c1CC[C@H]2Oc1ccc2c(c1)OC[C@H]2CC(=O)O [Example 32, 2-((S)-6-((R)-4-(2,6-Dimethyl-4-(1,1-dioxo-tetrahydro-2H-thiopyran-4-yloxy)phenyl)-7-fluoro-2,3-dihydro-1H-inden-1-yloxy)-2,3-dihydrobenzofuran-3-yl)acetic acid]",0.026
3,"Cc1cc(O[C@H]2C[C@@H](N(C)S(C)(=O)=O)C2)cc(C)c1-c1ccc(F)c2c1CC[C@H]2Oc1ccc2c(c1)OC[C@H]2CC(=O)O [Example 33, 2-((S)-6-((R)-4-(2,6-Dimethyl-4-((1s,3S)-3-(N-methylmethylsulfonamido)cyclobutoxy)phenyl)-7-fluoro-2,3-dihydro-1H-inden-1-yloxy)-2,3-dihydrobenzofuran-3-yl)acetic acid]",0.012
4,"Cc1cc(O[C@H]2CCN(S(C)(=O)=O)C2)cc(C)c1-c1ccc(F)c2c1CC[C@H]2Oc1ccc2c(c1)OC[C@H]2CC(=O)O [Example 34, 2-((S)-6-((R)-4-(2,6-Dimethyl-4-((S)-1-(methylsulfonyl)pyrrolidin-3-yloxy)phenyl)-7-fluoro-2,3-dihydro-1H-inden-1-yloxy)-2,3-dihydrobenzofuran-3-yl)acetic acid]",0.011
5,"Cc1cc(OCC2CCN(S(C)(=O)=O)CC2)cc(C)c1-c1ccc(F)c2c1CC[C@H]2Oc1ccc2c(c1)OC[C@H]2CC(=O)O [Example 35, 2-((S)-6-((R)-4-(2,6-Dimethyl-4-((1-(methylsulfonyl)piperidin-4-yl)methoxy)phenyl)-7-fluoro-2,3-dihydro-1H-inden-1-yloxy)-2,3-dihydrobenzofuran-3-yl)acetic acid]",0.057
6,"Cc1c(OC2CCS(=O)(=O)CC2)cccc1-c1ccc(F)c2c1CC[C@H]2Oc1ccc2c(c1)OC[C@H]2CC(=O)O [Example 38, ((S)-6-{(R)-4-[3-(1,1-Dioxo-hexahydro-1-thiopyran-4-yloxy)-2-methyl-phenyl]-7-fluoro-indan-1-yloxy}-2,3-dihydro-benzofuran-3-yl)-acetic acid]",0.076
7,"Cc1cc(OCC2(C)CN(S(C)(=O)=O)C2)cc(C)c1-c1ccc(F)c2c1CC[C@H]2Oc1ccc2c(c1)OC[C@H]2CC(=O)O [Example 39, ((S)-6-{(R)-7-Fluoro-4-[4-(1-methanesulfonyl-3-methyl-azetidin-3-ylmethoxy)-2,6-dimethyl-phenyl]-indan-1-yloxy}-2,3-dihydro-benzofuran-3-yl)-acetic acid]",0.008
8,"COCCCS(=O)(=O)c1cc(C)c(-c2ccc(F)c3c2CC[C@H]3Oc2ccc3c(c2)OC[C@H]3CC(=O)O)c(C)c1 [Example 53, ((S)-6-{(R)-7-Fluoro-4-[4-(3-methoxy-propane-1-sulfonyl)-2,6-dimethyl-phenyl]-indan-1-yloxy}-2,3-dihydro-benzofuran-3-yl)-acetic acid]",1.22
9,"Cc1cc(OCCCS(C)(=O)=O)cc(C)c1-c1ccc(F)c2c1CC[C@H]2Oc1ccc2c(c1)OC[C@H]2CC(=O)O [Example 57, 2-((S)-6-((R)-4-(2,6-Dimethyl-4-(3-(methylsulfonyl)propoxy)phenyl)-7-fluoro-2,3-dihydro-1H-inden-1-yloxy)-2,3-dihydrobenzofuran-3-yl)acetic acid]",0.026
10,"Cc1c(OCCCS(C)(=O)=O)cccc1-c1ccc(F)c2c1CC[C@H]2Oc1ccc2c(c1)OC[C@H]2CC(=O)O [Example 58, 2-((3S)-6-((1R)-7-Fluoro-4-(2-methyl-3-(3-(methylsulfonyl)propoxy)phenyl)-2,3-dihydro-1H-inden-1-yloxy)-2,3-dihydrobenzofuran-3-yl)acetic acid]",0.058
11,"Cc1c(C(N)=O)cccc1-c1ccc(F)c2c1CC[C@H]2Oc1ccc2c(c1)OC[C@H]2CC(=O)O [Example 59, 2-((3S)-6-((1R)-4-(3-Carbamoyl-2-methylphenyl)-7-fluoro-2,3-dihydro-1H-inden-1-yloxy)-2,3-dihydrobenzofuran-3-yl)acetic acid]",0.117
12,"Cc1cc(C(N)=O)cc(C)c1-c1ccc(F)c2c1CC[C@H]2Oc1ccc2c(c1)OC[C@H]2CC(=O)O [Example 60, 2-((S)-6-((R)-4-(4-Carbamoyl-2,6-dimethylphenyl)-7-fluoro-2,3-dihydro-1H-inden-1-yloxy)-2,3-dihydrobenzofuran-3-yl)acetic acid]",0.026
13,"Cc1cc(C(=O)N(C)C)cc(C)c1-c1ccc(F)c2c1CC[C@H]2Oc1ccc2c(c1)OC[C@H]2CC(=O)O [Example 61, 2-((S)-6-((R)-4-(4-(Dimethylcarbamoyl)-2,6-dimethylphenyl)-7-fluoro-2,3-dihydro-1H-inden-1-yloxy)-2,3-dihydrobenzofuran-3-yl)acetic acid]",0.051
14,"CNC(=O)c1cc(C)c(-c2ccc(F)c3c2CC[C@H]3Oc2ccc3c(c2)OC[C@H]3CC(=O)O)c(C)c1 [Example 62, 2-((S)-6-((R)-4-(2,6-Dimethyl-4-(methylcarbamoyl)phenyl)-7-fluoro-2,3-dihydro-1H-inden-1-yloxy)-2,3-dihydrobenzofuran-3-yl)acetic acid]",0.011
15,"Cc1cc(C(=O)N2CCOCC2)cc(C)c1-c1ccc(F)c2c1CC[C@H]2Oc1ccc2c(c1)OC[C@H]2CC(=O)O [Example 63, 2-((S)-6-((R)-4-(2,6-Dimethyl-4-(morpholine-4-carbonyl)phenyl)-7-fluoro-2,3-dihydro-1H-inden-1-yloxy)-2,3-dihydrobenzofuran-3-yl)acetic acid]",0.038
16,"Cc1cc(OCCNC(=O)OC(C)(C)C)cc(C)c1-c1ccc(F)c2c1CC[C@H]2Oc1ccc2c(c1)OC[C@H]2CC(=O)O [Example 65, 2-((S)-6-((R)-4-(4-(2-(tert-Butoxycarbonylamino)ethoxy)-2,6-dimethylphenyl)-7-fluoro-2,3-dihydro-1H-inden-1-yloxy)-2,3-dihydrobenzofuran-3-yl)acetic acid]",0.034
17,"COc1cc(COc2cc(C)c(-c3ccc(F)c4c3CC[C@H]4Oc3ccc4c(c3)OC[C@H]4CC(=O)O)c(C)c2)ccn1 [Example 147, 2-((S)-6-((R)-7-fluoro-4-(4-((2-methoxypyridin-4-yl)methoxy)-2,6-dimethylphenyl)-2,3-dihydro-1H-inden-1-yloxy)-2,3-dihydrobenzofuran-3-yl)acetic acid]",0.002
18,"Cc1cc(OCc2ccnn2C)cc(C)c1-c1ccc(F)c2c1CC[C@H]2Oc1ccc2c(c1)OC[C@H]2CC(=O)O [Example 151, 2-((S)-6-((R)-4-(2,6-dimethyl-4-((1-methyl-1H-pyrazol-5-yl)methoxy)phenyl)-7-fluoro-2,3-dihydro-1H-inden-1-yloxy)-2,3-dihydrobenzofuran-3-yl)acetic acid]",0.003
